According to ChEMBL document CHEMBL1201862, “PubChem BioAssay data set” (2004):
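1) Cells in 96-well plates. 2) Compound, 48 h, 5 concentrations. 3) Linear interpolation between surrounding doses. 4) Unreached endpoint = highest concentration. The concentration for 50% growth inhibition is given as GI50.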 Calls of active or inactive are those of the source. No stated cut-off is given here; in the data, active = GI50 up to about 1.1 µM and inactive = higher.

What was measured:
Test in all cases: DTP human tumour cell line panel, 48 h
NCI-H226 = tested on: NCI-H226
T47D = tested on: T47D
HT-29 = tested on: HT-29
M14 = tested on: M14
UACC-257 = tested on: UACC-257
NCI-H460 = tested on: NCI-H460
PC-3 = tested on: PC-3
SR = tested on: SR
A498 = tested on: A498
SK-MEL-2 = tested on: SK-MEL-2
MDA-N = tested on: MDA-N
CCRF-CEM = tested on: CCRF-CEM
COLO 205 = tested on: COLO 205
786-0 = tested on: 786-0
SNB-75 = tested on: SNB-75
RPMI-8226 = tested on: RPMI-8226
HCC 2998 = tested on: HCC 2998
LOX IMVI = tested on: LOX IMVI
SF-539 = tested on: SF-539
IGROV-1 = tested on: IGROV-1

Row | Structure (SMILES) | GI50 (NCI-H226) | GI50 (T47D) | GI50 (HT-29) | GI50 (M14) | GI50 (UACC-257) | GI50 (NCI-H460) | GI50 (PC-3) | GI50 (SR) | GI50 (A498) | GI50 (SK-MEL-2) | GI50 (MDA-N) | GI50 (CCRF-CEM) | GI50 (COLO 205) | GI50 (786-0) | GI50 (SNB-75) | GI50 (RPMI-8226) | GI50 (HCC 2998) | GI50 (LOX IMVI) | GI50 (SF-539) | GI50 (IGROV-1)
1 | O=C(Cn1ccnc1[N+](=O)[O-])N(CCO)CCO | > 250 µM (inactive) | > 250 µM (inactive) | > 250 µM (inactive) | > 250 µM (inactive) | > 250 µM (inactive) | > 1250 µM (inactive) | > 250 µM (inactive) | > 79.1 µM (inactive) | > 1250 µM (inactive) | 191 µM (inactive) | > 250 µM (inactive) | > 250 µM (inactive) | > 1250 µM (inactive) | > 250 µM (inactive) | > 1250 µM (inactive) | 25 µM (inactive) | > 250 µM (inactive) | > 1250 µM (inactive) | > 250 µM (inactive) | > 250 µM (inactive)
2 | COC(=O)c1ccc(NCc2cc(O)ccc2O)cc1O | 14 µM (inactive) | 3.4 µM (inactive) | 17.2 µM (inactive) | 16.5 µM (inactive) | 15.7 µM (inactive) | 14.4 µM (inactive) | 4.89 µM (inactive) | 5.48 µM (inactive) | 20.7 µM (inactive) | 16.4 µM (inactive) | 10.7 µM (inactive) | 0.877 µM (active) | 16.7 µM (inactive) | 8.07 µM (inactive) | 3.08 µM (inactive) | 1.17 µM (inactive) | 13.8 µM (inactive) | 13 µM (inactive) | 1.91 µM (inactive) | 8.97 µM (inactive)
3 | C/C(=N\Nc1nc2ccccc2[nH]1)c1ccncn1 | 0.0817 µM (active) | 0.103 µM (active) | 0.0818 µM (active) | 0.0951 µM (active) | 1.41 µM (inactive) | 0.0914 µM (active) | 2.61 µM (inactive) | 0.0811 µM (active) | 0.237 µM (active) | 0.617 µM (active) | 0.698 µM (active) | 0.0776 µM (active) | 0.128 µM (active) | 0.0693 µM (active) | 0.352 µM (active) | 0.196 µM (active) | 18.5 µM (inactive) | 0.0942 µM (active) | 0.0394 µM (active) | 0.103 µM (active)
4 | Cc1ccc(Nc2ncnc3sc(SCc4ccccc4)nc23)cc1 | > 100 µM (inactive) | 84.7 µM (inactive) | 36.1 µM (inactive) | > 100 µM (inactive) | > 100 µM (inactive) | > 100 µM (inactive) | 90.6 µM (inactive) | > 100 µM (inactive) | 8.81 µM (inactive) | > 100 µM (inactive) | > 100 µM (inactive) | > 100 µM (inactive) | > 100 µM (inactive) | > 100 µM (inactive) | > 100 µM (inactive) | 48 µM (inactive) | 33.7 µM (inactive) | > 100 µM (inactive) | > 100 µM (inactive) | > 100 µM (inactive)
5 | NC(=O)/C=C/c1c[nH]c2nccnc12 | 0.78 µM (active) | 3.5 µM (inactive) | 2.68 µM (inactive) | 3.97 µM (inactive) | 4.11 µM (inactive) | 3.7 µM (inactive) | 2.99 µM (inactive) | 1.66 µM (inactive) | 2.58 µM (inactive) | 1.79 µM (inactive) | 3.81 µM (inactive) | 0.656 µM (active) | 1.67 µM (inactive) | 3.34 µM (inactive) | 1.78 µM (inactive) | 2.43 µM (inactive) | 1.14 µM (inactive) | 0.625 µM (active) | 2.24 µM (inactive) | 3.83 µM (inactive)
